Columns and labels:
Assay in all cases: combination Emax (second highest fraction inhibited in the dose matrix, 72 h); higher = more inhibition; extreme values may be limits of the assay
[1] = tested on: PL4 (Pancreatic Carcinoma)
In short: (§1)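 Cell lines grown in DMEM/F12 or RPMI with 10% FBS were plated in 1536-well plates and held 24 hours at 37°C, 5% CO2 before 72 hours of exposure to two-drug dose matrices, with DMSO typically at 0.2%. CellTiter-Glo 2.0 luminescence gave viability, which was converted to inhibition. Vehicle wells were set to 0 and blank wells to 1. Combination Emax is the second-highest inhibition in the matrix, and Bliss excess is the observed combination effect minus the expected EA + EB − EA·EB, where EA and EB are the single-agent effects.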

[2] = tested on: SKG-IIIa (Cervical Carcinoma)
In short: as §1

GAK (Melanoma) = tested on: GAK (Melanoma)
In short: as §1

[3] = tested on: KP-4 (Pancreatic Carcinoma)
In short: as §1

[4] = tested on: C-33-A (Cervical Carcinoma)
In short: as §1

[5] = tested on: CL-11 (Colorectal Carcinoma)
In short: as §1

[6] = tested on: NCI-H1341 (Small Cell Lung Carcinoma)
In short: as §1

[7] = tested on: HT-1080 (Other Solid Carcinomas)
In short: as §1

[8] = tested on: NMC-G1 (Low Grade Glioma)
In short: as §1

[9] = tested on: COR-L88 (Small Cell Lung Carcinoma)
In short: as §1

[10] = tested on: MOLT-13 (T-Lymphoblastic Leukemia)
In short: as §1

NCI-H226 (Mesothelioma) = tested on: NCI-H226 (Mesothelioma)
In short: as §1

[11] = tested on: MS-1 (Small Cell Lung Carcinoma)
In short: as §1

KALS-1 (Glioblastoma) = tested on: KALS-1 (Glioblastoma)
In short: as §1

[12] = tested on: SAT (Head and Neck Carcinoma)
In short: as §1

[13] = tested on: NCI-H3118 (Head and Neck Carcinoma)
In short: as §1

IST-MEL1 (Melanoma) = tested on: IST-MEL1 (Melanoma)
In short: as §1

[14] = tested on: SiHa (Cervical Carcinoma)
In short: as §1

[15] = tested on: SK-CO-1 (Colorectal Carcinoma)
In short: as §1

[16] = tested on: MOLP-8 (Plasma Cell Myeloma)
In short: as §1

SMILES | combination Emax [1] | combination Emax [2] | combination Emax (GAK (Melanoma)) | combination Emax [3] | combination Emax [4] | combination Emax [5] | combination Emax [6] | combination Emax [7] | combination Emax [8] | combination Emax [9] | combination Emax [10] | combination Emax (NCI-H226 (Mesothelioma)) | combination Emax [11] | combination Emax (KALS-1 (Glioblastoma)) | combination Emax [12] | combination Emax [13] | combination Emax (IST-MEL1 (Melanoma)) | combination Emax [14] | combination Emax [15] | combination Emax [16]
CN(C)CCCOc1ccc(-c2ccc3ncc4c(c3c2)n(C2CCOCC2)c(=O)n4C)cn1 [AZD0156] + C=CCn1c(=O)c2cnc(Nc3ccc(N4CCN(C)CC4)cc3)nc2n1-c1cccc(C(C)(C)O)n1 [AZD1775] (first compound max 1 µM, partner max 1 µM) | 0.445 | 0.203 | 0.745 | 0.571 | 0.894 | 0.545 | 0.675 | 0.331 | 0.264 | 0.622 | 0.977 | 0.196 | 0.877 | 0.855 | 0.427 | 0.842 | 0.551 | 0.143 | 0.562 | 0.721
CN(C)CCCOc1ccc(-c2ccc3ncc4c(c3c2)n(C2CCOCC2)c(=O)n4C)cn1 [AZD0156] + CCN(CCO)CCCOc1ccc2c(Nc3cc(CC(=O)Nc4cccc(F)c4)[nH]n3)ncnc2c1 [AZD2811] (first compound max 1 µM, 7x7, partner max 1 µM) | 0.256 | 0.0993 | 0.198 | 0.327 | 0.0887 | 0.0968 | 0.409 | 0.142 | 0.126 | 0.127 | 0.99 | 0.0682 | 0.224 | 0.214 | 0.142 | 0.0407 | 0.231 | 0.135 | 0.798 | 0.603
C=CCn1c(=O)c2cnc(Nc3ccc(N4CCN(C)CC4)cc3)nc2n1-c1cccc(C(C)(C)O)n1 [AZD1775] + C[C@@H]1COCCN1C2=NC(=NC(=C2)C3(CC3)[S@](=N)(=O)C)C4=C5C=CNC5=NC=C4 [AZD6738] (first compound max 1 µM, partner max 10 µM) | 0.738 | 0.586 | 0.821 | – | 0.978 | 0.774 | 0.941 | 0.476 | 0.451 | 0.822 | 1 | 0.466 | 0.983 | 0.923 | 0.469 | 0.855 | 0.797 | 0.371 | 0.738 | 0.854
Cc1c2c(nn1C)CSCc1cc(n(C)n1)CSc1cc(c3ccccc3c1)OCCCc1c(C(=O)O)n(C)c3c-2c(Cl)ccc13 [AZD5991] + CCN(CCO)CCCOc1ccc2c(Nc3cc(CC(=O)Nc4cccc(F)c4)[nH]n3)ncnc2c1 [AZD2811] (first compound max 1 µM, 7x7, partner max 1 µM) | 0.474 | 0.235 | 0.314 | 0.667 | 0.275 | – | 0.341 | 0.264 | 0.305 | 0.36 | 1 | 0.262 | 0.48 | 0.358 | 0.811 | 0.625 | 0.349 | 0.368 | 0.73 | 1
Cn1cnc2c(F)c(Nc3ccc(Br)cc3Cl)c(C(=O)NOCCO)cc21 [Selumetinib] + CC(C)n1c(=O)n(C)c2cnc3cc(F)c(-c4ccc(OCCCN5CCCCC5)nc4)cc3c21 [AZD1390] (first compound max 10 µM, 7x7, partner max 0.3 µM) | 0.567 | 0.2 | 0.626 | 0.283 | 0.264 | 0.691 | 0.163 | 0.261 | – | 0.198 | 0.456 | 0.133 | 0.117 | 0.405 | 0.47 | 0.577 | 0.289 | 0.156 | 0.776 | 0.325
Cn1cnc2c(F)c(Nc3ccc(Br)cc3Cl)c(C(=O)NOCCO)cc21 [Selumetinib] + CCN(CCO)CCCOc1ccc2c(Nc3cc(CC(=O)Nc4cccc(F)c4)[nH]n3)ncnc2c1 [AZD2811] (first compound max 10 µM, 7x7, partner max 1 µM) | 0.572 | 0.321 | 0.629 | 0.678 | 0.324 | 0.709 | 0.271 | 0.387 | – | 0.257 | 1 | 0.216 | 0.179 | 0.417 | 0.604 | 0.537 | 0.361 | 0.22 | 0.878 | 0.417
Cn1cnc2c(F)c(Nc3ccc(Br)cc3Cl)c(C(=O)NOCCO)cc21 [Selumetinib] + C[C@@H]1COCCN1C2=NC(=NC(=C2)C3(CC3)[S@](=N)(=O)C)C4=C5C=CNC5=NC=C4 [AZD6738] (first compound max 10 µM, 7x7, partner max 10 µM) | 0.798 | 0.214 | 0.667 | 0.506 | 0.894 | 0.873 | 0.809 | 0.461 | – | 0.494 | 1 | 0.152 | 0.667 | 0.681 | 0.561 | 0.653 | 0.74 | 0.209 | 0.808 | 0.832
